Laboratory results as given in ChEMBL document CHEMBL1139710, “Syntheses and studies of quinolone-cephalosporins as potential anti-tuberculosis agents” (Bioorg Med Chem Lett, 2006).
Converted amounts (≈) assume the structure as drawn.

What was measured:
Escherichia coli [1] = test: Antibacterial activity against Escherichia coli DC0; format: functional, organism-based
Mycolicibacterium aurum [2] = test: Antibacterial activity against Mycobacterium aurum SB66; format: functional
Enterococcus faecalis = test: Antibacterial activity against Enterococcus faecalis 1528 VRE; format: functional
Pseudomonas aeruginosa [3] = test: Antibacterial activity against Pseudomonas aeruginosa KW 799/ 61 permeability mutant; format: functional
Mycolicibacterium aurum [4] = test: Antibacterial activity against Mycobacterium aurum DSM 43436; format: functional
Mycolicibacterium vaccae = test: Antibacterial activity against Mycobacterium vaccae IMET10670; format: functional
[5] = system: Mycolicibacterium smegmatis; test: Antibacterial activity against Mycobacterium smegmatis SG987; format: functional
Micrococcus luteus = test: Antibacterial activity against Micrococcus luteus ATCC 10240; format: functional
Staphylococcus aureus [6] = test: Antibacterial activity against Staphylococcus aureus 134/93 MRSA; format: functional
[7] = system: Mycobacterium tuberculosis; test: Antibacterial activity against Mycobacterium tuberculosis H37Rv by microplate alamar blue assay; format: functional
Pseudomonas aeruginosa [8] = test: Antibacterial activity against Pseudomonas aeruginosa KW 799; format: functional
Staphylococcus aureus [9] = test: Antibacterial activity against Staphylococcus aureus SG 511; format: functional
[10] = system: Mycolicibacterium fortuitum; test: Antibacterial activity against Mycobacterium fortuitum B; format: functional
Escherichia coli [11] = test: Antibacterial activity against Escherichia coli DC2 permeability mutant; format: functional
Enterobacter cloacae = test: Antibacterial activity against Enterobacter cloacae P99; format: functional
Vero = test: Cytotoxicity against Vero cells; format: cell-based; settings: Chlorocebus sabaeus

COc1ccc(COC(=O)C2=C(CI)CS[C@@H]3[C@H](NC(=O)Cc4ccccc4)C(=O)N23)cc1
MIC (Escherichia coli [1]): 200 µM (≈ 116 µg/mL) | MIC (Mycolicibacterium aurum [2]): 100 µM (≈ 57.8 µg/mL) | MIC (Enterococcus faecalis): 200 µM (≈ 116 µg/mL) | MIC (Pseudomonas aeruginosa [3]): 100 µM (≈ 57.8 µg/mL) | MIC (Mycolicibacterium aurum [4]): 50 µM (≈ 28.9 µg/mL) | MIC (Mycolicibacterium vaccae): 100 µM (≈ 57.8 µg/mL) | MIC [5]: > 200 µM | MIC (Micrococcus luteus): 100 µM (≈ 57.8 µg/mL) | MIC (Staphylococcus aureus [6]): > 200 µM | MIC [7]: > 128 µM | MIC (Pseudomonas aeruginosa [8]): 100 µM (≈ 57.8 µg/mL) | MIC (Staphylococcus aureus [9]): 6.25 µM (≈ 3.62 µg/mL) | MIC [10]: 200 µM (≈ 116 µg/mL) | MIC (Escherichia coli [11]): 200 µM (≈ 116 µg/mL) | MIC (Enterobacter cloacae): 100 µM (≈ 57.8 µg/mL)

O=C(Cc1ccccc1)N[C@@H]1C(=O)N2C(C(=O)OC(c3ccccc3)c3ccccc3)=C(CO)CS[C@H]12
MIC (Escherichia coli [1]): > 200 µM | MIC (Mycolicibacterium aurum [2]): 50 µM (≈ 25.7 µg/mL) | MIC (Enterococcus faecalis): 200 µM (≈ 103 µg/mL) | MIC (Pseudomonas aeruginosa [3]): 100 µM (≈ 51.5 µg/mL) | MIC (Mycolicibacterium aurum [4]): 25 µM (≈ 12.9 µg/mL) | MIC (Mycolicibacterium vaccae): 200 µM (≈ 103 µg/mL) | MIC [5]: 200 µM (≈ 103 µg/mL) | MIC (Micrococcus luteus): 25 µM (≈ 12.9 µg/mL) | MIC (Staphylococcus aureus [6]): > 200 µM | MIC [7]: > 128 µM | MIC (Pseudomonas aeruginosa [8]): 100 µM (≈ 51.5 µg/mL) | MIC (Staphylococcus aureus [9]): 3.12 µM (≈ 1.61 µg/mL) | MIC [10]: 200 µM (≈ 103 µg/mL) | MIC (Escherichia coli [11]): 200 µM (≈ 103 µg/mL) | MIC (Enterobacter cloacae): 200 µM (≈ 103 µg/mL)

O=C(Cc1ccccc1)N[C@@H]1C(=O)N2C(C(=O)O)=C(COC(=O)N3CCN(c4cc5c(cc4F)c(=O)c(C(=O)O)cn5C4CC4)CC3)CS[C@H]12
MIC (Escherichia coli [1]): 3.12 µM (≈ 2.2 µg/mL) | MIC (Mycolicibacterium aurum [2]): 0.2 µM (≈ 0.141 µg/mL) | MIC (Enterococcus faecalis): 6.25 µM (≈ 4.41 µg/mL) | MIC (Pseudomonas aeruginosa [3]): 3.12 µM (≈ 2.2 µg/mL) | MIC (Mycolicibacterium aurum [4]): 0.2 µM (≈ 0.141 µg/mL) | MIC (Mycolicibacterium vaccae): 1.56 µM (≈ 1.1 µg/mL) | MIC [5]: 3.12 µM (≈ 2.2 µg/mL) | MIC (Micrococcus luteus): 0.2 µM (≈ 0.141 µg/mL) | MIC (Staphylococcus aureus [6]): 200 µM (≈ 141 µg/mL) | MIC [7]: 1.6 µM (≈ 1.13 µg/mL) | MIC (Pseudomonas aeruginosa [8]): 3.12 µM (≈ 2.2 µg/mL) | MIC (Staphylococcus aureus [9]): 0.4 µM (≈ 0.282 µg/mL) | MIC [10]: 0.8 µM (≈ 0.565 µg/mL) | IC50 (Vero): > 128 µM | MIC (Escherichia coli [11]): 0.8 µM (≈ 0.565 µg/mL) | MIC (Enterobacter cloacae): 0.2 µM (≈ 0.141 µg/mL)

O=C(Cc1ccccc1)N[C@@H]1C(=O)N2C(C(=O)O)=C(CN3CCN(c4cc5c(cc4F)c(=O)c(C(=O)O)cn5C4CC4)CC3)CS[C@H]12
MIC (Escherichia coli [1]): 3.12 µM (≈ 2.06 µg/mL) | MIC (Mycolicibacterium aurum [2]): 0.4 µM (≈ 0.265 µg/mL) | MIC (Enterococcus faecalis): 12.5 µM (≈ 8.27 µg/mL) | MIC (Pseudomonas aeruginosa [3]): 1.56 µM (≈ 1.03 µg/mL) | MIC (Mycolicibacterium aurum [4]): 0.4 µM (≈ 0.265 µg/mL) | MIC (Mycolicibacterium vaccae): 3.12 µM (≈ 2.06 µg/mL) | MIC [5]: 3.12 µM (≈ 2.06 µg/mL) | MIC (Micrococcus luteus): 0.4 µM (≈ 0.265 µg/mL) | MIC (Staphylococcus aureus [6]): 200 µM (≈ 132 µg/mL) | MIC [7]: 3.8 µM (≈ 2.51 µg/mL) | MIC (Pseudomonas aeruginosa [8]): 1.56 µM (≈ 1.03 µg/mL) | MIC (Staphylococcus aureus [9]): 1.56 µM (≈ 1.03 µg/mL) | MIC [10]: 3.12 µM (≈ 2.06 µg/mL) | IC50 (Vero): > 128 µM | MIC (Escherichia coli [11]): 0.8 µM (≈ 0.529 µg/mL) | MIC (Enterobacter cloacae): 0.1 µM (≈ 0.0662 µg/mL)

COc1ccc(COC(=O)C2=C(CN3CCN(c4cc5c(cc4F)c(=O)c(C(=O)O)cn5C4CC4)CC3)CS[C@@H]3[C@H](NC(=O)Cc4ccccc4)C(=O)N23)cc1
MIC (Escherichia coli [1]): 25 µM (≈ 19.5 µg/mL) | MIC (Mycolicibacterium aurum [2]): 0.8 µM (≈ 0.625 µg/mL) | MIC (Enterococcus faecalis): 50 µM (≈ 39.1 µg/mL) | MIC (Pseudomonas aeruginosa [3]): 12.5 µM (≈ 9.77 µg/mL) | MIC (Mycolicibacterium aurum [4]): 1.56 µM (≈ 1.22 µg/mL) | MIC (Mycolicibacterium vaccae): 3.12 µM (≈ 2.44 µg/mL) | MIC [5]: 12.5 µM (≈ 9.77 µg/mL) | MIC (Micrococcus luteus): 3.12 µM (≈ 2.44 µg/mL) | MIC (Staphylococcus aureus [6]): > 200 µM | MIC [7]: 62.3 µM (≈ 48.7 µg/mL) | MIC (Pseudomonas aeruginosa [8]): 12.5 µM (≈ 9.77 µg/mL) | MIC (Staphylococcus aureus [9]): 1.56 µM (≈ 1.22 µg/mL) | MIC [10]: 12.5 µM (≈ 9.77 µg/mL) | IC50 (Vero): 13.1 µM | MIC (Escherichia coli [11]): 6.25 µM (≈ 4.89 µg/mL) | MIC (Enterobacter cloacae): 0.4 µM (≈ 0.313 µg/mL)

COc1ccc(COC(=O)C2=C(CCl)CS[C@@H]3[C@H](NC(=O)Cc4ccccc4)C(=O)N23)cc1
MIC (Escherichia coli [1]): 200 µM (≈ 97.4 µg/mL) | MIC (Pseudomonas aeruginosa [3]): 50 µM (≈ 24.3 µg/mL) | MIC (Mycolicibacterium vaccae): 100 µM (≈ 48.7 µg/mL) | MIC (Micrococcus luteus): 50 µM (≈ 24.3 µg/mL) | MIC [7]: 31.5 µM (≈ 15.3 µg/mL) | MIC (Pseudomonas aeruginosa [8]): 100 µM (≈ 48.7 µg/mL) | MIC (Staphylococcus aureus [9]): 1.56 µM (≈ 0.76 µg/mL) | MIC [10]: 100 µM (≈ 48.7 µg/mL)

O=C(O)c1cn(C2CC2)c2cc(N3CCNCC3)c(F)cc2c1=O [CIPROFLOXACIN]
MIC (Escherichia coli [1]): 0.4 µM (≈ 0.133 µg/mL) | MIC (Mycolicibacterium aurum [2]): 0.1 µM (≈ 0.0331 µg/mL) | MIC (Enterococcus faecalis): 1.56 µM (≈ 0.517 µg/mL) | MIC (Pseudomonas aeruginosa [3]): 0.4 µM (≈ 0.133 µg/mL) | MIC (Mycolicibacterium aurum [4]): 0.1 µM (≈ 0.0331 µg/mL) | MIC (Mycolicibacterium vaccae): 0.8 µM (≈ 0.265 µg/mL) | MIC [5]: 0.8 µM (≈ 0.265 µg/mL) | MIC (Micrococcus luteus): 25 µM (≈ 8.28 µg/mL) | MIC (Staphylococcus aureus [6]): 50 µM (≈ 16.6 µg/mL) | MIC [7]: 1.8 µM (≈ 0.596 µg/mL) | MIC (Pseudomonas aeruginosa [8]): 0.8 µM (≈ 0.265 µg/mL) | MIC (Staphylococcus aureus [9]): 0.8 µM (≈ 0.265 µg/mL) | MIC [10]: 0.2 µM (≈ 0.0663 µg/mL) | MIC (Escherichia coli [11]): < 0.1 µM

O=C(Cc1ccccc1)N[C@@H]1C(=O)N2C(C(=O)OC(c3ccccc3)c3ccccc3)=C(COC(=O)N3CCN(c4cc5c(cc4F)c(=O)c(C(=O)O)cn5C4CC4)CC3)CS[C@H]12
IC50 (Escherichia coli [1]): 1.56 µM | MIC (Mycolicibacterium aurum [2]): 0.2 µM (≈ 0.174 µg/mL) | MIC (Enterococcus faecalis): 3.12 µM (≈ 2.72 µg/mL) | MIC (Pseudomonas aeruginosa [3]): 1.56 µM (≈ 1.36 µg/mL) | MIC (Mycolicibacterium aurum [4]): 0.2 µM (≈ 0.174 µg/mL) | MIC (Mycolicibacterium vaccae): 1.56 µM (≈ 1.36 µg/mL) | MIC [5]: 1.56 µM (≈ 1.36 µg/mL) | MIC (Micrococcus luteus): 12.5 µM (≈ 10.9 µg/mL) | MIC (Staphylococcus aureus [6]): 100 µM (≈ 87.2 µg/mL) | MIC [7]: 8 µM (≈ 6.98 µg/mL) | MIC (Pseudomonas aeruginosa [8]): 1.56 µM (≈ 1.36 µg/mL) | MIC (Staphylococcus aureus [9]): 0.2 µM (≈ 0.174 µg/mL) | MIC [10]: 0.8 µM (≈ 0.698 µg/mL) | IC50 (Vero): > 128 µM | MIC (Escherichia coli [11]): 0.2 µM (≈ 0.174 µg/mL) | MIC (Enterobacter cloacae): < 0.1 µM
